Source: patent US10314883B2, “Compositions and methods for regulating blood pressure” (University of Virginia Patent Foundation, priority 2015, dated 2019)
Values belong to the compound of their own block, whether it stands above or below them.

What was measured:
[1] = biological target: T1, Panx1 (Mus musculus, UniProt Q9JIP4); test: Whole-cell patch clamp of CBX-sensitive Panx1 current in HEK293 cells cotransfected with mPanx1 and α1DAR; type: cell-based; conditions: CBX 50 μmol/L after phenylephrine, +80 mV
T1 construct: we progressively substituted amino acids in this region of full-length Panx1 with alanine residues; HA; expressed in transfected cells; host or cells: HEK293T cells, transient co-transfection with alpha1DAR plasmid (Origene, NM_013460, C-terminal Myc-DDK)
T1 sequence (Q9JIP4 whole entry): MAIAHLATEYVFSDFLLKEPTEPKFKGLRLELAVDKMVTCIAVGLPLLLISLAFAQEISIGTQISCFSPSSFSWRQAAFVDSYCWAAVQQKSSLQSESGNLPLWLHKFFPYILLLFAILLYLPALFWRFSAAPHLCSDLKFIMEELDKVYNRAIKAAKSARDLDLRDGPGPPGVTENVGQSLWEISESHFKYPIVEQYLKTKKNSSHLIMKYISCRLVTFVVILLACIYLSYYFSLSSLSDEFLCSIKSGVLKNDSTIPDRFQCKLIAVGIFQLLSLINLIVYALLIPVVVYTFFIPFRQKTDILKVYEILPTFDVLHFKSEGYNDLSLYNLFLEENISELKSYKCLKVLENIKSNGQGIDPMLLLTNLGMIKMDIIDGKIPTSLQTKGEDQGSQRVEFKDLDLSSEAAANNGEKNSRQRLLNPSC
Description: Human Embryonic Kidney (HEK) 293T cells were cultured as previously described, and were used until passage 20. For ATP measurements, 50,000 cells/well were seeded in 24 well plates pre-coated with 0.01% poly-L-lysine, and transfected using Lipofectamine 2000 (Invitrogen) according to the manufacturer protocol. Briefly, 0.4 μg of α1DAR and 0.4 μg of Panx1^WT, Panx1^KYP>AAA, Panx1^IVEQ>AAA or Panx1^YLK>AAA plasmids were added to each well along with 2 μl of Lipofectamine 2000. For electrophysiology measurements, 4 μg of α1DAR plasmid, 2 μg of Panx1^WT, Panx1^KYP>AAA, Panx1^IVEQ>AAA or Panx1^YLK>AAA plasmids, and 0.5 μg of GFP plasmid were mixed with 10 μl Lipofectamine 2000 and added to a well of 6-well plate seeded with ˜70% confluent HEK cells. Cells were split the next morning and plated onto a glass coverslip for recording. ATP measurements and whole-cell recordings were performed 24 hours after transfection.
Whole-cell recordings were obtained at room temperature from transiently transfected HEK293T cells using Axopatch 200B amplifier (Molecular Devices) in a bath solution composed of 140 mmol/L NaCl, 3 mmol/L KCl, 2 mmol/L MgCl2, 2 mmol/L CaCl2, 10 mmol/L HEPES and 10 mmol/L glucose (pH 7.3). Patch pipettes (3-5 MΩ) were filled with a Cs-/TEA-based internal solution, as previously described. Ramp voltage commands with 7-s intervals were applied using pCLAMP software and Digidata1322A digitizer (Molecular Devices). Peak whole-cell currents were determined at +80 mV and normalized to cell capacitance. Current mediated by Panx1 was defined by its sensitivity to carbenoxolone (CBX). In this system, no CBX-sensitive current is observed in HEK293T cells without Panx1. Basal current was recorded for approximately two minutes and PE (20 μmol/L) was applied to the bath solution, which was followed by addition of CBX (50 μmol/L). When indicated, cells were pre-incubated with bath solution containing IL2 peptide or its scrambled version at room temperature for 40-60 minutes prior to the experiment. The effect of PE on Panx1 current was quantified relative to CBX-sensitive basal current, and data was expressed as percent increase in CBX-sensitive current. All experiments were performed on 8 to 22 cells for each conditions tested. Data were analyzed using a Kruskall Wallis test (non-parametric one-way ANOVA) followed by Dunn's post-hoc test.
To test if α1AR stimulation triggered opening of the Panx1 channel and the importance of the region represented by the IL2 peptide, we cotransfected mPanx1 and α1DAR into HEK293 cells and monitored whole-cell currents by patch clamp electrophysiology.

[2] = biological target: T2, Panx1 (Homo sapiens, UniProt Q96RD7); conditions: cited from earlier work
Target sequence in this assay (Q96RD7 whole entry): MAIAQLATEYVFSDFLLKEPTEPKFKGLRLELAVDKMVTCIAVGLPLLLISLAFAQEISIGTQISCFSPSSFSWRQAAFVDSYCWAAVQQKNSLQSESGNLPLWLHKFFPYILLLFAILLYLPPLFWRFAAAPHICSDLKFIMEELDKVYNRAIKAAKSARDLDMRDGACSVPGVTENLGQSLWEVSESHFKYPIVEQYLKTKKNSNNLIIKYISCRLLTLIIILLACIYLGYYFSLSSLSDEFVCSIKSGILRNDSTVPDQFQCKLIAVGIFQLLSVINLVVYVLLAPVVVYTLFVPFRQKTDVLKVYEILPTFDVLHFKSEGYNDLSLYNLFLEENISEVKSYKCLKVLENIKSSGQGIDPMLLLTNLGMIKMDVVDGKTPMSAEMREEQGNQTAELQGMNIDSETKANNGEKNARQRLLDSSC

[3] = test system: anaesthetized guinea pigs; conditions: injected into anaesthetized guinea pigs; cited from earlier work
[4] = test system: Cre/Panx1 mice; test: Blood pressure by radiotelemetry before and after tamoxifen in the conditional KO mouse model; type: in vivo
Description: Blood pressure was measured using radiotelemetry units (Data Sciences International, DSI) implanted in C57Bl/6, Cre^−/Panx1^F1, Cre^−/Panx1^WT, Cre^+/Panx1^WT, and Cre^+/Panx1^F1 mice. The catheter of a radiotelemetry unit (TA11PA-C10, DSI) was implanted in the mouse left carotid artery under isoflurane anesthesia, and the catheter was tunneled trough the radiotransmitter placed in a subcutaneous pouch along the right flank of the mouse, as previously described. After implantation, mice were allowed to recover for seven days.
For experiments on the conditional KO mouse model: blood pressure was measured using Dataquest A.R.T. 20 software (DSI) for five days before proceeding to tamoxifen injections at 1 mg/kg for ten days. Blood pressure was recorded for another five days 24 hours after the last tamoxifen injection. The change in mean arterial pressure (ΔMAP) was calculated by subtracting the average MAP measured for five days before tamoxifen injections to the mean arterial pressure measured for five days after the tamoxifen injections. […]
Based on the central role of α1AR signaling in blood pressure homeostasis, we evaluated the effect of Panx1 deletion on systemic blood pressure. Blood pressure was measured using radiotelemetry units as previously described by us. Blood pressure was measured on the conditional KO mouse model for five days before proceeding to tamoxifen injections, and for another five days 24 hours after the last tamoxifen injection. The change in mean arterial pressure (ΔMAP) was calculated by subtracting the average MAP measured for five days before tamoxifen injections to the MAP measured for five days after the tamoxifen injections. Day MAP was measured during the light cycle (06:00-18:00), while night MAP was measured during the nocturnal cycle (18:00 to 06:00). For experiments on C57Bl/6, basal blood pressure was measured continuously for 30 minutes before intraperitoneal injection of saline solution or peptide, and for 1.5 hours after the injection. […]

[5] = biological target: T2, Panx1; conditions: neurons; cited from earlier work
Target sequence in this assay (Q96RD7 whole entry, species assumed): as the sequence (Q96RD7 whole entry) above

[6] = test system: thoracodorsal arteries (TDA); test: Pressure myography: agonist-induced constriction of pressurized TDAs from C57Bl/6 mice with pannexin inhibitors or Panx1 mimetic peptides; type: cell-based, mouse
Description: The contractile responses of pressurized thoracodorsal arteries (TDA) were measured as previously described. Briefly, TDA were isolated and placed in cold Krebs-HEPES until cannulation in a pressure arteriograph (Danish MyoTechnology). After a 30 minute equilibration period, cumulative concentrations of contractile agonists were applied to the TDA pressurized at 80 mmHg, and the vessel was visualized with an Olympus IX-71 microscope attached to a Hamamatsu EM-CCD camera coupled to Slidebook imaging software. […] Lastly, maximal diameter was measured at the end of each experiment in calcium-free Krebs-HEPES supplemented with EGTA (1 mmol/L) and sodium nitroprusside (10 μmol/L). In cases where the vessels were not constricting to the contractile agonist, their viability was assessed by applying 40 mM KCl and only TDA reaching 30% of the maximal diameter were considered for analysis. The contractile responses, as well as the basal tone, are expressed as a percentage of the maximal diameter.
Using pressure arteriography on TDA dissected from C57Bl/6 mice (as described; and aortic ring contraction, as described), we measured the effect of pannexin inhibitors, probenecid and 10Panx1, on the contractile response upon stimulation with different vasoconstrictors: phenylephrine (FIG. 1A), noradrenaline (also called norepinephrine) (FIG. 1B), serotonin (also known as 5-HT) (FIG. 1C) and endothelin-1 (FIG. 1D). […] In contrast, ^10Panx1 and probenecid had no effect on contraction of TDA measured in response to cumulative concentrations of serotonin or endothelin-1 (FIGS. 1C-D; Table 1).
To determine the region of Panx1 necessary for channel activation in response to α1AR stimulation, we produced short peptides derived from the intracellular regions of the Panx1 channel. We generated two peptides mimicking unique mouse Panx1 (mPanx1) sequences in the first intracellular loop (IL1 and IL2) and two peptides mimicking unique mPanx1 sequences in the C-terminal region, one in second intracellular loop (CT1) and one in the C-terminal tail (CT2) (FIG. 4A scissors indicate caspase 3 cleavage site; Table 3). All peptides also contained a TAT sequence to facilitate entry into cells and we verified the intracellular localization of each peptide by immunofluorescence detection of the TAT sequence in TDAs pre-incubated with each peptide (FIG. 7A). We tested the effect of each peptide on phenylephrine-induced contractile responses in pressurized TDAs from C57Bl/6 mice (FIGS. 4B-E). […] Note that these differences in effects of phenylephrine were similar in magnitude to those observed in arteries from SMC-specific Panx1-knockout mice and littermate controls (FIG. 2C, Table 2).

effect on Panx1 whole-cell current [1]: abolished the current
Compound: CC1(C)[C@@H](OC(=O)CCC(=O)O)CC[C@]2(C)[C@H]3C(=O)C=C4[C@@H]5C[C@@](C)(C(=O)O)CC[C@]5(C)CC[C@@]4(C)[C@]3(C)CC[C@@H]12 [CBX, carbenoxolone]

Compound: N[C@@H]1[C@H]2CN(c3nc4c(cc3F)c(=O)c(C(=O)O)cn4-c3ccc(F)cc3F)C[C@@H]12 [Trovafloxacin]
inhibition of Panx1 channels [2]: can also inhibit Panx1 channels

Compound: OC(c1cc(C(F)(F)F)nc2c(C(F)(F)F)cccc12)C1CCCCN1 (stereo not drawn) [mefloquine]
effect on blood pressure [3]: induces hypotension

Compound: CC/C(=C(\c1ccccc1)c1ccc(OCCN(C)C)cc1)c1ccccc1 [tamoxifen]
heart rate ([4]; Cre^+/Panx1^Fl mice, after tamoxifen): 549±7 beats per min
decrease of mean arterial blood pressure ([4]; Cre^+/Panx1^Fl mice, tamoxifen 1 mg/kg i.p. for ten days (induces SMC Panx1 deletion)): 4.6±2.1 mmHg
change of mean arterial blood pressure ([4]; mice retaining Panx1 (Cre^−/Panx1^WT, Cre^−/Panx1^Fl, Cre^+/Panx1^WT)): no evident changes

Compound: mPanx1 305-RRLKVYEILPTFDVLH-318 (SEQ ID NO: 5) linked with TAT; previously published to inhibit NMDA-mediated Panx1 opening [CT1]
effect on NMDA-induced Panx1 activation [5]: prevent
effect on phenylephrine-induced constriction of pressurized TDAs ([6]; TAT-linked peptides, C57Bl/6 TDAs): did not affect
EMAX of phenylephrine for TDA constriction ([6]; in presence of the named peptide): 50.7 ± 9.08 percentage of maximal diameter
